One may read the IC50 as the concentration at which inhibition is half-maximal.

Where a name gives a salt, the structure may show the parent alone. Read-outs that look alike come from different tables or passages of the source.

IC50 data for ten compounds are collected here from US20260234165A1, “MACROCYCLIC COMPOUNDS, PREPARATION METHOD THEREFOR, AND USE THEREOF” (GENFLEET THERAPEUTICS (SHANGHAI) INC., priority 2004, published 2026).

Assay type in all cases: cell-based, human
The subject of assay [1] is AsPC-1 cells (KRAS G12D mutation). Kind of assay: 3D cell proliferation assay (CellTiter Glo-3D), AsPC-1. To be noted: medium with 2% FBS, read-out: AsPC-1 AP IC50. Put shortly: (§1)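 Five-day treatment of NCI-H441 or AsPC-1 cells (800/well, 2% FBS RPMI-1640, 0.1% DMSO) with graded compound concentrations; ATP content by CellTiter-Glo 3D; IC50 fitted.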
(Cellular ATP, detected with luciferase, serves as a proxy for viable cell number.)

For assay [2], the system named is p-ERK in AsPC-1 cells (KRAS G12D mutation). Nature of the assay: Cell p-ERK assay (HTRF) in AsPC-1 cells. Conditions: AsPC-1 cells, 3 h compound incubation, HTRF p-ERK T202/Y204, read-out: AsPC-1 p-ERK IC50. Put shortly:
(§2)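 AsPC-1 (10000/well) or NCI-H441 (20000/well) cells were seeded in RPMI-1640 with 10% FBS, grown overnight, then exposed to 3.16-fold compound dilutions (0.1% DMSO) for 3 h at 37 °C. Lysates were read for phospho-ERK T202/Y204 by HTRF; IC50 came from four-parameter fits of inhibition versus DMSO and blank wells.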
Background: Time-resolved FRET reads energy transfer from a long-lived donor to a nearby acceptor.

The next assay concerns NCI-H441 cells. Kind of assay: 3D cell proliferation assay (CellTiter Glo-3D), NCI-H441. Conditions: medium with 2% FBS, read-out: H441 AP IC50. An outline of the steps: as §1
Assay [3] concerns p-ERK in NCI-H441 cells (KRAS G12V mutation). Kind of assay: Cell p-ERK assay (HTRF) in NCI-H441 cells. Conditions: NCI-H441 cells, 3 h compound incubation, HTRF p-ERK T202/Y204, read-out: H441 p-ERK IC50. Put shortly: as §2
[4] abbreviates: Homo sapiens, ASPC1, 3D cell proliferation (CellTiter Glo-3D).
Setting [5] is: Homo sapiens, NCI-H441, 3D cell proliferation (CellTiter Glo-3D).
Where [6] appears, read: 3D cell proliferation (CellTiter Glo-3D).

Consider `CCn1c(-c2cc(C#C[C@H]3COCCN3C)cnc2[C@H](C)OC)c2c3cc(ccc31)-c1csc(n1)C[C@H](NC(=O)[C@H]1[C@H](C)[C@@H]1C)C(=O)N1CCC[C@H](N1)C(=O)OCC(C)(C)C2` (atropisomer, axis not shown; (Ra)) [Compound Z673, (1r,2R,3S)—N-((6^3S,4S,Z)-1^1-ethyl-(Ra)-1^2-(2-((S)-1-methoxyethyl)-5-(((S)-4-methylmorpholin-3-yl)ethynyl)pyridin-3-yl)-10,10-dimethyl-5,7-dioxo-6^1,6^2,6^3,6^4,6^5,6^6hexahydro-1^1H-8-oxa-2(4,2)-thiazola-1(5,3)-indola-6(1,3)-pyridazinacycloundecaphane-4-yl)-2,3-dimethylcyclopropane-1-carboxamide], for which the IC50 in assay [1] (setting [4]) came to 0.52 nM; in assay [2] (Homo sapiens, ASPC1, 3 h), 0.27 nM; in the assay with NCI-H441 cells (setting [5]), 0.23 nM; in assay [3] (Homo sapiens, NCI-H441, 3 h), 0.33 nM.
Turning to `CCn1c(-c2cc(C#CCN3CCCOCC3)cnc2[C@H](C)OC)c2c3cc(ccc31)-c1csc(n1)C[C@H](NC(=O)C(C)(C)CC)C(=O)N1CCC[C@H](N1)C(=O)OCC(C)(C)C2` (atropisomer, axis not shown; (Ra)) [Compound Z812, N-((6^3S,4S,Z)—(Ra)-1^2-(5-(3-(1,4-oxazepan-4-yl)prop-1-yn-1-yl)-2-((S)-1-methoxyethyl)pyridin-3-yl)-1^1-ethyl-10,10-dimethyl-5,7-dioxo-6^1,6^2,6^3,6^4,6^5,6^6-hexahydro-1^1H-8-oxa-2(4.2)-thiazola-1(5,3)-indola-6(1,3)-pyridazinacycloundecaphane-4-yl)-2.2-dimethylbutanamide], the IC50 in assay [1] (setting [4]) worked out at 3.52 nM; in assay [2] (Homo sapiens, ASPC1, 3 h), 1.69 nM; in the assay with NCI-H441 cells (setting [5]), 1.64 nM; in assay [3] (Homo sapiens, NCI-H441, 3 h), 1.06 nM.
In the case of `CCn1c(-c2cc(C3(N(C)C(=O)CN(C)C)CC3)cnc2[C@H](C)OC)c2c3cc(ccc31)-c1csc(n1)C[C@H](NC(=O)[C@H]1[C@H](C)[C@@H]1C)C(=O)N1CCC[C@H](N1)C(=O)OCC(C)(C)C2` [Compound Z372, (1r,2R,3S)—N-((6^3S,4S,Z)-1^2-(5-(1-(2-(dimethylamino)-N-methylacetamido)cyclopropyl)-2-((S)-1-methoxyethyl)pyridin-3-yl)-1^1-ethyl-10,10-dimethyl-5,7-dioxo-6^1,6^2,6^3,6^4,6^5,6^6-hexahydro-1^1H-8-oxa-2(4,2)-thiazola-1(5,3)-indola-6(1,3)-pyridazinacycloundecaphane-4-yl)-2,3-dimethylcyclopropane-1-carboxamide], the IC50 in assay [1] (setting [4]) amounted to 15.3 nM; in assay [2] (Homo sapiens, ASPC1, 3 h), 31.4 nM; in the assay with NCI-H441 cells (setting [5]), 6.8 nM; in assay [3] (Homo sapiens, NCI-H441, 3 h), 14 nM.
The like results for `CCn1c(-c2cc(C#CCN3CCCOCC3)cnc2[C@H](C)OC)c2c3cc(ccc31)-c1csc(n1)C[C@H](NC(=O)C1[C@H]3COC[C@@H]13)C(=O)N1CCC[C@H](N1)C(=O)OCC(C)(C)C2` (atropisomer, axis not shown; (Ra)) [Compound Z1030] were, in that order, 0.39 nM, 0.17 nM, 0.28 nM and 0.17 nM.
The like results for `CCn1c(-c2cc(OC[C@H]3CCCN3Cc3ccn(C)n3)cnc2[C@H](C)OC)c2c3cc(ccc31)-c1csc(n1)C[C@H](NC(=O)[C@H]1[C@H](C)[C@@H]1C)C(=O)N1CCC[C@H](N1)C(=O)OCC(C)(C)C2` (atropisomer, axis not shown; (Ra)) [Compound Z784-2, (1r,2R,3S)—N-((6^3S,4S,Z)—(Ra)-1^2-5-(((R)-1-((1-methyl-1H-pyrazol-3-yl)methyl)pyrrolidin-2-yl)methoxy)-(2-((S)-1-methoxyethyl)-pyridin-3-yl)-10,10-dimethyl-5,7-dioxo-6^1,6^2,6^3,6^4,6^5,6^6-hexahydro-1^1H-8-oxa-2(4,2)-thiazola-1(5,3)-indola-6(1.3)-pyridazinacycloundecaphane-4-yl)-2,3-dimethylcyclopropane-1-carboxamide] were, in that order, 0.83 nM, 0.66 nM, 0.53 nM and 0.8 nM.
Regarding `CCn1c(-c2cc(C#CCN3CCOC4(CC4)C3)cnc2[C@H](C)OC)c2c3cc(ccc31)-c1csc(n1)C[C@H](NC(=O)[C@H]1[C@H](C)[C@@H]1C)C(=O)N1CCC[C@H](N1)C(=O)OCC(C)(C)C2` [Compound Z369-1, (1r,2R,3S)—N-((6^3S,4S,Z)-1^2-(5-(3-(4-oxa-7-azaspiro[2.5]octan-7-yl)prop-1-yn-1-yl)-2-((S)-1-methoxyethyl)pyridin-3-yl)-1^1-ethyl-10,10-dimethyl-5,7-dioxo-6^1,6^2,6^3,6^4,6^5,6^6-hexahydro-1^1H-8-oxa-2(4,2)-thiazola-1(5,3)-indola-6(1,3)-pyridazinacycloundecaphane-4-yl)-2,3-dimethylcyclopropane-1-carboxamide formate], the IC50 stood at 0.14 nM in assay [1] (setting [4]); 0.12 nM in assay [2] (Homo sapiens, ASPC1, 3 h); 0.21 nM in the assay on NCI-H441 cells (setting [5]); 0.16 nM in assay [3] (Homo sapiens, NCI-H441, 3 h).
Regarding `CCn1c(-c2cc(C#CC(=O)N3CCCOCC3)cnc2[C@H](C)OC)c2c3cc(ccc31)-c1csc(n1)C[C@H](NC(=O)[C@H]1[C@H](C)[C@@H]1C)C(=O)N1CCC[C@H](N1)C(=O)OCC(C)(C)C2` (atropisomer, axis not shown; (Ra)) [Compound Z810, (1r,2R,3S)—N-((6^3S,4S,Z)-1^1-ethyl-(Ra)-1-(5-(3-(1,4-oxazepan-4-yl)-3-oxoprop-1-yn-1-yl)-2-((S)-1-methoxyethyl)pyridin-3-yl)-10,10-methyl-5,7-dioxo-6^1,6^2,6^3,6^4,6^5,6^6hexahydro-1^1H-8-oxa-2(4,2)-thiazola-1(5,3)-indola-6(1,3)-pyridazinacycloundecaphane-4-yl)-2,3-dimethylcyclopropane-1-carboxamide], the IC50 came to 3.22 nM in assay [1] (setting [4]), 1.35 nM in assay [2], 1.83 nM in the assay with NCI-H441 cells (setting [5]) and 1.65 nM in assay [3].
With `CCn1c(-c2cc(C#CCN3CCC(Nc4ccccc4P(C)(C)=O)CC3)cnc2[C@H](C)OC)c2c3cc(ccc31)-c1csc(n1)C[C@H](NC(=O)[C@H]1[C@H](C)[C@@H]1C)C(=O)N1CCC[C@H](N1)C(=O)OCC(C)(C)C2` (atropisomer, axis not shown; (Ra)) [Compound Z1062, (1r,2R,3S)—N-((6^35,4S,Z)-1^2-(5-(3-(4-((2-(dimethylphosphoryl)phenyl)amino)piperidin-1-yl)prop-1-yn-1-yl)-(Ra)-2-((S)-1-methoxyethyl)pyridin-3-yl)-1^1-ethyl-10,10-dimethyl-5,7-dioxo-6^1,6^2,6^3,6^4,6^5,6^6-hexahydro-1^1H-8-oxa-2(4,2)-thiazola-1(5,3)-indola-6(1,3)-pyridazinacycloundecaphane-4-yl)-2,3-dimethylcyclopropane-1-carboxamide], the IC50 in assay [1] (setting [4]) was 0.94 nM; in assay [2] (Homo sapiens, ASPC1, 3 h), 0.82 nM; in the assay with NCI-H441 cells (setting [5]), 1.3 nM; in assay [3] (Homo sapiens, NCI-H441, 3 h), 0.53 nM.
In the case of `CCn1c(-c2cc(C#CCN3CCC3)cnc2[C@H](C)OC)c2c3cc(ccc31)-c1csc(n1)C[C@H](NC(=O)[C@H]1[C@H](C)[C@@H]1C)C(=O)N1CCC[C@H](N1)C(=O)OCC(C)(C)C2` (atropisomer, axis not shown; (Sa)) [Compound Z555, (1r,2R,3S)—N-((6^3S,4S,Z)—(Sa)-1^2-(5-(3-(azetidin-1-yl)prop-1-yn-1-yl)-2-((S)-1-methoxyethyl)pyridin-3-yl)-1^1-ethyl-10,10-dimethyl-5,7-dioxo-6^1,6^2,6^3,6^4,6^5,6^6-hexahydro-1^1H-8-oxa-2(4,2)-thiazola-1(5,3)-indola-6(1,3)-pyridazinacycloundecaphane-4-yl)-2,3-dimethylcyclopropane-1-carboxamide], the IC50 was found to be 30.4 nM in assay [1] (setting [6]), 13.4 nM in assay [2], 18.4 nM in the assay with NCI-H441 cells (setting [6]) and 11.2 nM in assay [3].
The corresponding values for `CCn1c(-c2cc(OCC3(N4CCCOCC4)CC3)cnc2[C@H](C)OC)c2c3cc(ccc31)-c1csc(n1)C[C@H](NC(=O)[C@H]1[C@H](C)[C@@H]1C)C(=O)N1CCC[C@H](N1)C(=O)OCC1(CC1)C2` [Compound Z329, (1r,2R,3S)—N-((3′S,4′S,Z)-2′-(5-((1-(1,4-oxazepan-4-yl)cyclopropyl)methoxy)-2-((S)-1-methoxyethyl)pyridin-3-yl)-1′-ethyl-5′,7′-dioxospiro[cyclopropane-1,10′-8-oxa-2(4,2)-thiazola-1(5,3)-indola-6(1,3)-pyridazinacycloundecaphan]-4′-yl)-2,3-dimethylcyclopropane-1-carboxamide] are 51.9 nM, 15.7 nM, 23.1 nM and 8.74 nM.
